Experimental data reported in PMC6680701, “Brain Delivery of Thyrotropin-Releasing Hormone via a Novel Prodrug Approach” (Pharmaceutics, 2019).
Square brackets hold non-standard residues; d marks the D form. Peptide text beside a SMILES is read from it. ξ: configuration not given here. ξGly(decyl) = CCCCCCCCCCC(N)C(=O)O

Columns and labels:
[1] = In vitro metabolic stability in brain homogenate; type: in vitro ADME; conditions: mouse, male CD-1 mouse brain homogenate, 10 µM test compound
Experimental: (§1) Metabolic stability studies were carried out as reported before using freshly made brain homogenate (20% w/v) and plasma at 37 °C, in triplicate. For obtaining brain homogenates, a Bead Bug microtube homogenizer (Benchmark Scientific, Edison, NJ, USA) was used. For obtaining plasma, blood was collected in BD Vacutainer® Sodium Heparin tubes (Becton, Dickinson and Co., Franklin Lakes, NJ, USA) followed by centrifugation. Each biological matrix was spiked with compound (1) or TRH to create 10 µM solutions. KYP-2047, a POP inhibitor, was used in selected experiments at 50 µM concentration. Sample aliquots (100 µL) of TRH-containing matrices were removed after 2, 4, 6, 8, 10, 15, and 30 min, while sample aliquots (100 µL) of prodrug-containing matrices were obtained at 5, 10, 20, 30, 40, 60, 90, 120, and 210 min. Sample aliquots were added to 200 µL of acetic acid solution (20% v/v) in acetonitrile, thoroughly vortexed and, then, centrifuged before LC–MS/MS analysis. For LC separation, a Kinetex-C8 column (10 cm × 4.6 mm i.d., dp = 2.6 µm; Phenomenex; Torrance, CA, USA) with the eluent mixed from (A) H2O with 0.1% (v/v) formic acid and (B) acetonitrile with 0.1% (v/v) formic acid, flow rate of 400 µL/min, and gradient elution by a 10-min linear program from 0% B to 90% B were employed. Half-life (t1/2) values were calculated by assuming pseudo-first-order degradation.

[2] = In vitro metabolic stability in plasma; type: in vitro ADME; conditions: male CD-1 mouse plasma, 10 µM test compound, n = 3, ± SD; for half-life: mouse, plasma, read-out: t1/2 in Plasma
Experimental: as §1

[3] = 37 °C, n = 3, ± SD, read-out: t1/2 in 20% (w/v) Brain Homogenate

CCCCCCCCCCC(N)C(=O)NC(CCCCCCCCCC)C(=O)N1CCC[C@H]1C(=O)N1CCC[C@H]1C(=O)N[C@@H](CCC(N)=O)C(=O)N[C@@H](Cc1c[nH]cn1)C(=O)N1CCC[C@H]1C(N)=O (stereo partly drawn) [(1), C12-C12-Pro-Pro-Gln-His-Pro-NH2] (H-[ξGly(decyl)][ξGly(decyl)]PPQHP-NH2)
half-life [1, 3]: 0.783 ± 0.1 h | half-life ([1]; with POP inhibitor KYP-2047 at 50 µM, n = 3, read-out: t1/2 in 20% (w/v) Brain Homogenate): > 24 h | half-life ([2]; 37 °C): 1.67 ± 0.117 h | half-life ([2]; with POP inhibitor KYP-2047 at 50 µM): 1.92 ± 0.217 h | t1/2 in Plasma ([2]; with POP inhibitor KYP-2047 at 50 µM, listed as prodrug): did not change

NC(=O)[C@@H]1CCCN1C(=O)[C@H](Cc1cnc[nH]1)NC(=O)[C@@H]1CCC(=O)N1 [TRH, pGlu-His-Pro-NH2, reference compound]
half-life [1, 3]: < 0.0833 h | half-life ([2]; 37 °C): ~0.117 h
